Test results as given in patent US20060062850A1, “Controlled release antimicrobial polymer compositions” (priority 2004, published 2006).

Legend:
L. monocytogenes 15313 [1] = assay: spot on lawn assay; type: cell-based
Experimental: For each concentration of each antimicrobial agent, a spot on lawn assay was conducted as a positive control experiment to assess the efficacy of the antimicrobial solutions. In this assay, Trypticase Soy Agar (TSA) and Modified Oxford Agar (MOX) agar plates were inoculated with L. monocytogenes 15313 at a level of 10E+08 cfu/ml through an Autoplate 4000 model from Spiral Biotech, Inc., of Norwood, Mass. A volumetric pipette pump was then used to place three 10 μl spots of antimicrobial solution onto three well-separated regions of the test plate. Another volumetric pipette pump was used to place 10 μl of a negative control solution (i.e., neat solvent(s)) onto another well-separated region. Three such agar plates were prepared for each concentration of antimicrobial solution. After spot placement, the agar plates were allowed to stand undisturbed for 10 to 30 minutes in a laminar flow hood before incubation at 37° C. for at least 24 hours.
The zone of inhibition resulting from each spot of antimicrobial solution was measured using a dial caliper (available from Brown and Sharpe of North Kingstown, R.I.; accuracy to 0.02 mm). Each zone of inhibition was measured twice, once on each of two perpendicular axes. The values reported in Tables 2 (TSA plates) and 3 (MOX plates) are the average of 18 measurements.

L. monocytogenes 15313 [2] = assay: film on lawn assay; type: cell-based; details: incubation at 37 C.
Experimental: In a film on lawn assay, films of Example 1 and Example 2 were cut into 15 mm by 15 mm samples, placed onto aluminum foil, and exposed to UV light in a laminar flow hood for 4 to 7 minutes. The samples were then transferred from the foil to one of six freshly made up antimicrobial solutions to imbibe for 12 to 24 hours at a specified temperature (4° C. or 37° C.). The films are expected to substantially reach equilibration in less than 12 hours. The films were removed with a pair of flame-sterilized ocular forceps, allowed to drip dry, and held for 60 seconds on a sterile Petri dish before positioning on TSA and MOX agar plates. The agar plates had been prepared as described above with respect to the spot on lawn assay. Two films were placed on each of the prepared agar plates, in well-separated regions. A third 15 mm×15 mm film was imbibed under the same conditions in a negative control solution and placed in another region of the plate. Three plates were prepared in this manner for each concentration of each antimicrobial agent. In the case of the MOX agar plates, a fourth plate was prepared with the same level of innoculum, with no films in it, to serve as a growth indicator plate for color change. After film placement, the plates were allowed to stand undisturbed for 10 to 30 minutes in a laminar flow hood before incubation for at least 24 hours.
Incubation took place at either 4° C. for 14 to 28 days or 37° C. for two to five days. The incubation conditions are noted in the Tables.
The zone of inhibition resulting from each spot of antimicrobial solution was measured as described above, with respect to the spot on lawn assay. The values reported in Tables 5 and 6 are the average of 12 measurements. Occasionally inhibition could be observed on the MOX agar plates, but not easily measured, owing to the relatively diffuse boundaries between areas of inhibition and non-inhibition. In such cases, a qualitative description of the results is provided.

For `O=C(O)c1ccccc1` [Benzoic acid], which “Group averages of Inhibition Zones, Spot on Lawn Assay” value (L. monocytogenes 15313 [1]; MOX Agar Plates, 0.75 wt % in Ethanol/Water (36/63.25)) is on record?
Its value is 7.91 mm.

What about the “Group averages of Inhibition Zones, Spot on Lawn Assay” value (L. monocytogenes 15313 [1]; MOX Agar Plates, 1.5 wt % in Ethanol/Water (36/62.5)) of the same compound?
The value was 8.66 mm.

And the “Group averages of Inhibition Zones, Spot on Lawn Assay” value (L. monocytogenes 15313 [1]; MOX Agar Plates, 3.0 wt % in Ethanol/Water (36/61))?
Its value is 8.75 mm.

And the “Group averages of Inhibition Zones, Spot on Lawn Assay” value (L. monocytogenes 15313 [1]; TSA Agar, 0.75 wt % in Ethanol/Water (36/63.25))?
The value was 8.13 ± 0.27 mm.

And the “Group averages of Inhibition Zones, Spot on Lawn Assay” value (L. monocytogenes 15313 [1]; TSA Agar, 1.5 wt % in Ethanol/Water (36/62.5))?
The value was 8.32 ± 0.69 mm.

What about the “Group averages of Inhibition Zones, Spot on Lawn Assay” value (L. monocytogenes 15313 [1]; TSA Agar, 3.0 wt % in Ethanol/Water (36/61)) of the same compound?
The value was 8.32 ± 0.53 mm.

And the “Group averages of Inhibition Zones, Film on Lawn Assay Example 1” value (L. monocytogenes 15313 [2]; MOX Agar Plates, Example 1 film soaked at 37 C. in 0.75 wt % solution, Ethanol/Water (36/63.25))?
The value was 0 (no inhibition) mm.

What about the “Group averages of Inhibition Zones, Film on Lawn Assay Example 1” value (L. monocytogenes 15313 [2]; MOX Agar Plates, Example 1 film soaked at 37 C. in 1.5 wt % solution, Ethanol/Water (36/62.5)) of the same compound?
Its value is 24.0 ± 3.34 mm.

What about the “Group averages of Inhibition Zones, Film on Lawn Assay Example 1” value (L. monocytogenes 15313 [2]; MOX Agar Plates, Example 1 film soaked at 37 C. in 3.0 wt % solution, Ethanol/Water (36/61)) of the same compound?
Its value is 39.52 ± 2.93 mm.

What about the “Group averages of Inhibition Zones, Film on Lawn Assay Example 2” value (L. monocytogenes 15313 [2]; MOX Agar Plates, Example 2 film soaked at 37 C. in 0.75 wt % solution, Ethanol/Water (36/63.25)) of the same compound?
The value was 0 (no inhibition) mm.

What about the “Group averages of Inhibition Zones, Film on Lawn Assay Example 2” value (L. monocytogenes 15313 [2]; MOX Agar Plates, Example 2 film soaked at 37 C. in 1.5 wt % solution, Ethanol/Water (36/62.5)) of the same compound?
Its value is 21.38 ± 3.90 mm.

What about the “Group averages of Inhibition Zones, Film on Lawn Assay Example 2” value (L. monocytogenes 15313 [2]; MOX Agar Plates, Example 2 film soaked at 37 C. in 3.0 wt % solution, Ethanol/Water (36/61)) of the same compound?
Its value is 32.29 ± 7.53 mm.

What about the “Group averages of Inhibition Zones, Film on Lawn Assay Example 1” value (L. monocytogenes 15313 [2]; TSA Agar, Example 1 film soaked at 37 C. in 0.75 wt % solution, Ethanol/Water (36/63.25)) of the same compound?
Its value is 0 (no inhibition) mm.

What about the “Group averages of Inhibition Zones, Film on Lawn Assay Example 1” value (L. monocytogenes 15313 [2]; TSA Agar, Example 1 film soaked at 37 C. in 1.5 wt % solution, Ethanol/Water (36/62.5)) of the same compound?
Its value is 17.68 ± 1.64 mm.

What about the “Group averages of Inhibition Zones, Film on Lawn Assay Example 1” value (L. monocytogenes 15313 [2]; TSA Agar, Example 1 film soaked at 37 C. in 3.0 wt % solution, Ethanol/Water (36/61)) of the same compound?
Its value is 20.17 ± 1.19 mm.

What about the “Group averages of Inhibition Zones, Film on Lawn Assay Example 2” value (L. monocytogenes 15313 [2]; TSA Agar, Example 2 film soaked at 37 C. in 0.75 wt % solution, Ethanol/Water (36/63.25)) of the same compound?
The value was 0 (no inhibition) mm.

And the “Group averages of Inhibition Zones, Film on Lawn Assay Example 2” value (L. monocytogenes 15313 [2]; TSA Agar, Example 2 film soaked at 37 C. in 1.5 wt % solution, Ethanol/Water (36/62.5))?
The value was 18.60 ± 0.61 mm.

What about the “Group averages of Inhibition Zones, Film on Lawn Assay Example 2” value (L. monocytogenes 15313 [2]; TSA Agar, Example 2 film soaked at 37 C. in 3.0 wt % solution, Ethanol/Water (36/61)) of the same compound?
Its value is 18.90 ± 1.82 mm.
